Data on 7 molecules can be found in ChEMBL document CHEMBL1833824, “Effects of cyclization on stability, structure, and activity of α-conotoxin RgIA at the α9α10 nicotinic acetylcholine receptor and GABA(B) receptor” (J Med Chem, 2011).

In data set [1] the test system is Oocyte. Nature of the data set: Inhibition of human alpha-9/rat alpha-10 nACHR expressed in Xenopus oocytes assessed as inhibition of acetylcholine-induced current at 50 nM by voltage clamp assay. The class given is cell-based.
Data set [2] in a line: Inhibition of human alpha-9/rat alpha-10 nAChR expressed in Xenopus oocytes assessed as inhibition of acetylcholine-induced current by voltage clamp assay. The class given is cell-based. Conditions: Oocyte.
A short description of data set [3]: Inhibition of GABA-B receptor-mediated high voltage-activated Ca2+ channel current in Wistar rat DRG neurons by whole-cell patch clamp assay. The note with it: DRG neuron.
The subject of data set [4] is Oocyte. Description: Inhibition of human alpha-9/rat alpha-10 nACHR expressed in Xenopus oocytes assessed as inhibition of acetylcholine-induced current by voltage clamp assay relative to RgIA. It is filed as cell-based. Conditions: dose or concentration not given here.
Data set [5] is described as follows: Metabolic stability in human AB positive serum assessed as compound degradation at 20 uM at 5 hrs. It is filed as ADME, cell-free. Conditions: read-out: Drug metabolism.

Bridge positions count the residues as written; N and C are the ends. Peptide text beside a SMILES is read from it. Some results are limits rather than exact numbers.

As for `N=C(N)NCCC[C@H](NC(=O)[C@@H]1CSSC[C@@H]2NC(=O)[C@@H](NC(=O)CN)CSSC[C@H](NC(=O)[C@H](CCCNC(=N)N)NC(=O)[C@@H]3CCCN3C(=O)[C@H](CC(=O)O)NC(=O)[C@H](CO)NC2=O)C(=O)N[C@@H](CCCNC(=N)N)C(=O)N[C@@H](Cc2ccc(O)cc2)C(=O)N[C@@H](CCCNC(=N)N)C(=O)N1)C(=O)O`, in data set [1], the inhibition (commonly the percentage by which the read-out fell short of the control) was 60%. In addition, the IC50 (usually the concentration that gives 50% inhibition) in data set [2] worked out at 40 nM; in data set [3], 40.7 nM.
In data set [3], `C[C@H](NC(=O)CNC(=O)[C@@H]1CSSC[C@H](NC(=O)CN)C(=O)N[C@H]2CSSC[C@H](NC(=O)[C@H](CCCNC(=N)N)NC(=O)[C@@H]3CCCN3C(=O)[C@H](CC(=O)O)NC(=O)[C@H](CO)NC2=O)C(=O)N[C@@H](CCCNC(=N)N)C(=O)N[C@@H](Cc2ccc(O)cc2)C(=O)N[C@@H](CCCNC(=N)N)C(=O)N1)C(=O)N[C@@H](C)C(=O)NCC(=O)NCC(=O)O` (H-GCCSDPRCRYRCGAAGG-OH; disulfide 2-12, 3-8) came in with a half-maximal inhibitory concentration (IC50) of 11.5 nM. Also, the inhibition in data set [4] was 25%.
`C[C@H](NC(=O)CNC(=O)[C@@H]1CSSC[C@H](NC(=O)CN)C(=O)N[C@H]2CSSC[C@H](NC(=O)[C@H](CCCNC(=N)N)NC(=O)[C@@H]3CCCN3C(=O)[C@H](CC(=O)O)NC(=O)[C@H](CO)NC2=O)C(=O)N[C@@H](CCCNC(=N)N)C(=O)N[C@@H](Cc2ccc(O)cc2)C(=O)N[C@@H](CCCNC(=N)N)C(=O)N1)C(=O)N[C@@H](C)C(=O)NCC(=O)O` (H-GCCSDPRCRYRCGAAG-OH; disulfide 2-12, 3-8): the IC50 in data set [3] stood at 70.1 nM. The inhibition in data set [4] worked out at 12%.
For `C[C@H](NC(=O)[C@H](C)NC(=O)CNC(=O)[C@@H]1CSSC[C@H](NC(=O)CN)C(=O)N[C@H]2CSSC[C@H](NC(=O)[C@H](CCCNC(=N)N)NC(=O)[C@@H]3CCCN3C(=O)[C@H](CC(=O)O)NC(=O)[C@H](CO)NC2=O)C(=O)N[C@@H](CCCNC(=N)N)C(=O)N[C@@H](Cc2ccc(O)cc2)C(=O)N[C@@H](CCCNC(=N)N)C(=O)N1)C(=O)O` (H-GCCSDPRCRYRCGAA-OH; disulfide 2-12, 3-8) the same measures were 82.5 nM and 8%.
For the molecule `N=C(N)NCCC[C@@H]1NC(=O)[C@H](Cc2ccc(O)cc2)NC(=O)[C@H](CCCNC(=N)N)NC(=O)[C@@H]2CSSC[C@H](NC(=O)CN)C(=O)N[C@@H](CSSC[C@@H](C(=O)O)NC1=O)C(=O)N[C@@H](CO)C(=O)N[C@@H](CC(=O)O)C(=O)N1CCC[C@H]1C(=O)N[C@@H](CCCNC(=N)N)C(=O)N2` (H-GCCSDPRCRYRC-OH; disulfide 2-8, 3-12), the inhibition in data set [1] is 55%. For the same molecule, the IC50 was determined as 34 nM in data set [2] and 4.4 nM in data set [3]. Besides, the metabolised at 5 h, 20 µM in data set [5] was 92%.
Take `C[C@H](NC(=O)CNC(=O)[C@H](C)NC(=O)[C@H](C)NC(=O)CNC(=O)CNC(=O)[C@@H]1CSSC[C@H](NC(=O)CN)C(=O)N[C@H]2CSSC[C@H](NC(=O)[C@H](CCCNC(=N)N)NC(=O)[C@@H]3CCCN3C(=O)[C@H](CC(=O)O)NC(=O)[C@H](CO)NC2=O)C(=O)N[C@@H](CCCNC(=N)N)C(=O)N[C@@H](Cc2ccc(O)cc2)C(=O)N[C@@H](CCCNC(=N)N)C(=O)N1)C(=O)NCC(=O)O` (H-GCCSDPRCRYRCGGAAGAG-OH; disulfide 2-12, 3-8): the inhibition in data set [1] was 60%. In addition, the figures for the concentration for half-maximal inhibition (IC50) in data set [2] and in data set [3] were 19 nM and 36.3 nM, respectively. Further, in data set [5], the metabolised at 5 h, 20 µM was 54%.
Take `C[C@H](NC(=O)CNC(=O)CNC(=O)[C@@H]1CSSC[C@H](NC(=O)CN)C(=O)N[C@H]2CSSC[C@H](NC(=O)[C@H](CCCNC(=N)N)NC(=O)[C@@H]3CCCN3C(=O)[C@H](CC(=O)O)NC(=O)[C@H](CO)NC2=O)C(=O)N[C@@H](CCCNC(=N)N)C(=O)N[C@@H](Cc2ccc(O)cc2)C(=O)N[C@@H](CCCNC(=N)N)C(=O)N1)C(=O)N[C@@H](C)C(=O)NCC(=O)NCC(=O)O` (H-GCCSDPRCRYRCGGAAGG-OH; disulfide 2-12, 3-8): the IC50 in data set [2] was above 50 nM; in data set [3], 4.3 nM. In addition, the metabolised at 5 h, 20 µM in data set [5] turned out to be 43%. In data set [4], the inhibition came to 39%.
